Experimental data reported in patent US11673910B2, “Macrolides with modified desosamine sugars and uses thereof” (Zikani Therapeutics, Inc., priority 2017, dated 2023).
≈ marks a conversion by molar mass, not a printed value.

Assays:
Type in all cases: cell-based
[1] = system: E. coli strain MP-4; assay: Broth dilution MIC determination (CLSI) against E. coli strain MP-4; conditions: Escherichia coli, MP4
Procedure: (§1) Minimum inhibitory concentrations (MICs) for macrolides described herein were determined for E. coli strain MP-4, K. pneumoniae strain MP-548, P. aeruginosa strain MP-3, A. baumannii strain MP-15, and S. aureus strain MP-12 using similar test procedures as published in US Pat. Pub. No. 2017/0305953. MIC data is represented as “+++” for values less than or equal to 4 mg/L, “++” for values of greater than or equal to 8 mg/L and less than 32 mg/L, and “+” for values of 32 mg/L or greater. ND indicates no data for a particular compound. CLSI standard procedures for broth dilution MIC determination were used.

[2] = system: P. aeruginosa strain MP-3; assay: Broth dilution MIC determination (CLSI) against P. aeruginosa strain MP-3; conditions: Pseudomonas aeruginosa, MP3
Procedure: as §1

[3] = system: A. baumannii strain MP-15; assay: Broth dilution MIC determination (CLSI) against A. baumannii strain MP-15; conditions: Acinetobacter baumannii, MP15
Procedure: as §1

[4] = system: K. pneumoniae strain MP-548; assay: Broth dilution MIC determination (CLSI) against K. pneumoniae strain MP-548; conditions: Klebsiella pneumoniae, MP548
Procedure: as §1

[5] = system: S. aureus strain MP-12; assay: Broth dilution MIC determination (CLSI) against S. aureus strain MP-12; conditions: for MIC: Staphylococcus aureus, MP12, strain MP-12; for MIC against S. aureus (MP-12): strain MP-12
Procedure: as §1

Row | Compound | MIC [1] | MIC [2] | MIC [3] | MIC [4] | MIC [5] | MIC against S. aureus (MP-12) [5]
1 | CC[C@H]1OC(=O)C(C)C(=O)[C@H](C)[C@@H](OC2OC(CNCC(=O)OC)CC(N(C)C)C2O)[C@](C)(OC)C[C@@H](C)CN[C@H](C)[C@H]2NC(=O)O[C@@]21C (stereo partly drawn) [Compound 127, 3-Descladinosyl-3-oxo-6-O-methyl-N9a-desmethyl-11,12-dideoxy-12,11-(oxycarbonylimino)-6′-(methyl aminomethylcarboxylate) Azithromycin] | ≤ 4 µg/mL | ≥ 32 µg/mL | ≥ 32 µg/mL | 8 to 32 µg/mL (≈ 11.4 to 45.7 µM) | ≥ 32 µg/mL | 
2 | CC[C@H]1OC(=O)C(C)C(=O)[C@H](C)[C@@H](O[C@@H]2OC(CNCc3ccccc3F)CC(N(C)C)C2O)[C@](C)(OC)C[C@@H](C)CN[C@H](C)[C@H]2NC(=O)O[C@@]21C (stereo partly drawn) [Compound 29] | ≤ 4 µg/mL | ≥ 32 µg/mL | ≥ 32 µg/mL | ≥ 32 µg/mL | ≥ 32 µg/mL | 
3 | CC[C@H]1OC(=O)[C@@]2(C)CCOC(C)(C[C@@H](C)CN(C)[C@H](C)[C@H]3NC(=O)O[C@@]31C)[C@H](O[C@@H]1O[C@H](CNC3CC3)C[C@H](N(C)C)[C@H]1O)[C@@H](C)C2=O [Compound 208] | ≤ 4 µg/mL | ≥ 32 µg/mL | 8 to 32 µg/mL (≈ 11.5 to 46 µM) | ≤ 4 µg/mL | ≤ 4 µg/mL | 
4 | CC[C@H]1OC(=O)C(C)C(=O)[C@H](C)[C@@H](O[C@@H]2OC(CNCCc3ccc(F)cc3)CC(N(C)C)C2O)[C@](C)(OC)C[C@@H](C)CN[C@H](C)[C@H]2NC(=O)O[C@@]21C (stereo partly drawn) [Compound 39] | ≤ 4 µg/mL | ≥ 32 µg/mL | ≥ 32 µg/mL | ≥ 32 µg/mL | ≥ 32 µg/mL | 
5 | CC[C@H]1OC(=O)[C@@]2(C)CCOC(C)(C[C@@H](C)CN(CC(C)C)[C@H](C)[C@H]3NC(=O)O[C@@]31C)[C@H](O[C@@H]1OC(C)CC(N(C)C)C1O)[C@@H](C)C2=O (stereo partly drawn) [Compound 222] |  |  |  |  | 8 to 32 µg/mL (≈ 11.7 to 46.9 µM) | 
6 | CC[C@H]1OC(=O)C(C)C(=O)[C@H](C)[C@@H](O[C@@H]2OC(CNCc3ccc(F)cc3)CC(N(C)C)C2O)[C@](C)(OC)C[C@@H](C)CN[C@H](C)[C@H]2NC(=O)O[C@@]21C (stereo partly drawn) [Compound 18] | ≤ 4 µg/mL | ≥ 32 µg/mL | ≥ 32 µg/mL | 8 to 32 µg/mL (≈ 10.9 to 43.4 µM) | ≥ 32 µg/mL | 
7 | CC[C@H]1OC(=O)C(C)C(=O)[C@H](C)[C@@H](OC2OC(CN(C)C(C)C)CC(N(C)C)C2O)[C@](C)(OC)C[C@@H](C)CN[C@H](C)[C@H]2NC(=O)O[C@@]21C (stereo partly drawn) [Compound 154, 3-Desdadinosyl-3-oxo-6-O-methyl-N9a-desmethyl-11,12-dideoxy-12,11-(oxycarbonylimino)-6′-isopropylmethylamino Azithromycin] | ≤ 4 µg/mL | ≥ 32 µg/mL | ≥ 32 µg/mL | 8 to 32 µg/mL (≈ 11.7 to 46.7 µM) | ≥ 32 µg/mL | 
8 | CO[C@]1(C)C[C@@H](C)CN[C@H](C)[C@H]2NC(=O)O[C@]2(C)[C@@H](C)OC(=O)C(C)C(=O)[C@H](C)[C@H]1OC1OC(CNC2CCC2)CC(N(C)C)C1O (stereo partly drawn) [Compound 147, 3-Descladinosyl-3-oxo-6-O-methyl-N9a-desmethyl-11,12-dideoxy-12,11-(oxycarbonylimino)-6′-cyclobutylamino-13-methyl Azithromycin] | 8 to 32 µg/mL (≈ 12 to 47.8 µM) | ≥ 32 µg/mL | ≥ 32 µg/mL | ≥ 32 µg/mL | ≥ 32 µg/mL | 
9 | CO[C@]1(C)C[C@@H](C)CN[C@H](C)[C@H]2NC(=O)O[C@]2(C)[C@@H](C)OC(=O)C(C)C(=O)[C@H](C)[C@H]1OC1OC(CNC2CC2)CC(N(C)C)C1O (stereo partly drawn) [Compound 146, 3-Descladinosyl-3-oxo-6-O-methyl-N9a-desmethyl-11,12-dideoxy-12,11-(oxycarbonylimino)-6′-cyclopropylamino-13-methyl Azithromycin] | ≥ 32 µg/mL | ≥ 32 µg/mL | ≥ 32 µg/mL | ≥ 32 µg/mL | ≥ 32 µg/mL | 
10 | CC[C@H]1OC(=O)C(C)C(=O)[C@H](C)[C@@H](O[C@@H]2O[C@H](CN)CC(N(C)C)[C@H]2O)[C@](C)(OC)C[C@@H](C)CN[C@H](C)[C@H]2NC(=O)O[C@@]21C (stereo partly drawn) [Compound 174, 3-Descladinosyl-3-oxo-6-O-methyl-N9a-desmethyl-11,12-dideoxy-12,11-(oxycarbonylimino)-11-methyl-6′-amino Azithromycin] | ≥ 32 µg/mL | ≥ 32 µg/mL | ≥ 32 µg/mL | ≥ 32 µg/mL | ≥ 32 µg/mL | 
11 | CC[C@H]1OC(=O)[C@@]2(C)CCOC(C)(C[C@@H](C)CN[C@H](C)[C@H]3NC(=O)O[C@@]31C)[C@H](O[C@@H]1OC(CNC(C)C)CC(N(C)C)C1O)[C@@H](C)C2=O (stereo partly drawn) [Compound 213] | ≤ 4 µg/mL | ≥ 32 µg/mL | ≥ 32 µg/mL | ≤ 4 µg/mL | ≤ 4 µg/mL | 
12 | CC[C@H]1OC(=O)[C@]2(C)CCOC(C)(C[C@@H](C)CN[C@H](C)[C@H]3NC(=O)O[C@@]31C)[C@H](O[C@@H]1O[C@H](CNCC(F)(F)F)C[C@H](N(C)C)[C@H]1O)[C@@H](C)C2=O [Compound 207] |  |  |  |  | ≥ 32 µg/mL | 
13 | CC[C@H]1OC(=O)C(C)C(=O)[C@H](C)[C@@H](O[C@@H]2OC(CNc3ccc(C#N)cc3)CC(N(C)C)C2O)[C@](C)(OC)C[C@@H](C)CN[C@H](C)[C@H]2NC(=O)O[C@@]21C (stereo partly drawn) [Compound 50] | 8 to 32 µg/mL (≈ 11 to 43.8 µM) | ≥ 32 µg/mL | ≥ 32 µg/mL | ≥ 32 µg/mL | ≥ 32 µg/mL | 
14 | CC[C@H]1OC(=O)C(C)C(=O)[C@H](C)[C@@H](OC2OC(CNCC(C)(C)O)CC(N(C)C)C2O)[C@](C)(OC)C[C@@H](C)CN[C@H](C)[C@H]2NC(=O)O[C@@]21C (stereo partly drawn) [Compound 113, 3-Descladinosyl-3-oxo-6-O-methyl-N9a-desmethyl-11,12-dideoxy-12,11-(oxycarbonylimino)-6′-(2-methylpropan-2-ol-amino) Azithromycin] | 8 to 32 µg/mL (≈ 11.4 to 45.7 µM) | ≥ 32 µg/mL | ≥ 32 µg/mL | ≥ 32 µg/mL | ≥ 32 µg/mL | 
15 | CC[C@H]1OC(=O)[C@@]2(C)CCOC(C)(C[C@@H](C)CN(C)[C@H](C)[C@H]3NC(=O)O[C@@]31C)[C@H](O[C@@H]1O[C@H](CN(C)C3CC3)C[C@H](N(C)C)[C@H]1O)[C@@H](C)C2=O [Compound 209] | ≤ 4 µg/mL | ≥ 32 µg/mL | 8 to 32 µg/mL (≈ 11.3 to 45.1 µM) | ≤ 4 µg/mL | ≤ 4 µg/mL | 
16 | CC[C@H]1OC(=O)C(C)C(=O)[C@H](C)[C@@H](OC2OC(CNC34CC(C3)C4)CC(N(C)C)C2O)[C@](C)(OC)C[C@@H](C)CN[C@H](C)[C@H]2NC(=O)O[C@@]21C (stereo partly drawn) [Compound 141, 3-Descladinosyl-3-oxo-6-O-methyl-N9a-desmethyl-11,12-dideoxy-12,11-(oxycarbonylimino)-6′-(bicyclo[1.1.1]pentanylamino) Azithromycin] | ≤ 4 µg/mL | ≥ 32 µg/mL | 8 to 32 µg/mL (≈ 11.5 to 46 µM) | ≤ 4 µg/mL | 8 to 32 µg/mL (≈ 11.5 to 46 µM) | 
17 | CO[C@]1(C)C[C@@H](C)CN[C@H](C)[C@H]2NC(=O)O[C@]2(C)[C@@H](C)OC(=O)C(C)C(=O)[C@H](C)[C@H]1OC1OC(CNCC2CC2)CC(N(C)C)C1O (stereo partly drawn) [Compound 148, 3-Descladinosyl-3-oxo-6-O-methyl-N9a-desmethyl-11,12-dideoxy-12,11-(oxycarbonylimino)-6′-cyclopropylmethylamino-13-methyl Azithromycin] | ≥ 32 µg/mL | ≥ 32 µg/mL | ≥ 32 µg/mL | ≥ 32 µg/mL | ≥ 32 µg/mL | 
18 | CC[C@H]1OC(=O)[C@@](C)(F)C(=O)[C@H](C)[C@@H](O[C@@H]2OC(CNc3ccc(-c4cncnc4)cc3)CC(N(C)C)C2O)[C@](C)(OC)C[C@@H](C)C(=O)[C@H](C)[C@H]2NC(=O)O[C@@]21C (stereo partly drawn) [Compound 94] | ≥ 32 µg/mL | ≥ 32 µg/mL | 8 to 32 µg/mL (≈ 10 to 40 µM) | ≥ 32 µg/mL | ≤ 4 µg/mL | 
19 | CC[C@H]1OC(=O)C(C)C(=O)[C@H](C)[C@@H](OC2OC(CN3CCCCC3)CC(N(C)C)C2O)[C@](C)(OC)C[C@@H](C)CN[C@H](C)[C@H]2NC(=O)O[C@@]21C (stereo partly drawn) [Compound 123, 3-Desdadinosyl-3-oxo-6-O-methyl-N9a-desmethyl-11,12-dideoxy-12,11-(oxycarbonylimino)-6′-(1-piperidinyl) Azithromycin] | ≤ 4 µg/mL | ≥ 32 µg/mL | ≥ 32 µg/mL | 8 to 32 µg/mL (≈ 11.5 to 45.9 µM) | ≥ 32 µg/mL | 
20 | CC[C@H]1OC(=O)C(C)C(=O)[C@H](C)[C@@H](OC2OC(CNCC3CC3)CC(N(C)C)C2O)[C@](C)(OC)C[C@@H](C)CN[C@H](C)[C@H]2NC(=O)O[C@@]21C (stereo partly drawn) [Compound 119, 3-Descladinosyl-3-oxo-6-O-methyl-N9a-desmethyl-11,12-dideoxy-12,11-(oxycarbonylimino)-6′-(cyclopropylmethylamino) Azithromycin] | ≤ 4 µg/mL |  | ≥ 32 µg/mL | 8 to 32 µg/mL (≈ 11.7 to 46.9 µM) | ≥ 32 µg/mL | 
21 | CC[C@H]1OC(=O)[C@]2(C)CCOC(C)(C[C@@H](C)CN[C@H](C)[C@H]3NC(=O)O[C@@]31C)[C@H](O[C@@H]1O[C@H](CNC34CC(C3)C4)C[C@H](N(C)C)[C@H]1O)[C@@H](C)C2=O [Compound 205] |  |  |  |  |  | + (values of 32 mg/L or greater)
22 | CC[C@H]1OC(=O)[C@]2(C)CCO[C@](C)(C[C@@H](C)CN[C@H](C)[C@H]3NC(=O)O[C@@]31C)[C@H](O[C@@H]1O[C@H](CNC3CC3)C[C@H](N(C)C)[C@H]1O)[C@@H](C)C2=O [Compound 203] |  | ≥ 32 µg/mL |  |  | ≥ 32 µg/mL | 
23 | 3-Descladinosyl-3-oxo-6-O-methyl-N9a-desmethyl-11,12-dideoxy-12,11-(oxycarbonylimino)-6,11-(Z-2-butenyl)-6′-cyclopropylamino azithromycin [Compound 230] |  |  |  |  |  | + (values of 32 mg/L or greater)
24 | CCC1CO[C@@]2(C)C[C@@H](C)CN[C@H](C)[C@H]3NC(=O)O[C@]3(C)[C@@H](CC)OC(=O)[C@@]1(C)C(=O)[C@H](C)[C@H]2OC1OC(C)CC(N(C)C)C1O (stereo partly drawn) [Compound 225] |  |  |  |  | ≥ 32 µg/mL | 
